Assay results from patent publication US3973006A, “Peptide enzyme inhibitors of angiotensin I” (E. R. Squibb & Sons, Inc., priority 1975, dated 1976).

Legend:
[1] = molecular target: angiotensin-converting enzyme (Homo sapiens, UniProt P12821); experiment: Inhibition of angiotensin-converting enzyme (conversion of angiotensin I into angiotensin II), I50 determination; format: biochemical; conditions: for IC50: 0.3 mM angiotensin I, 100 mM potassium phosphate buffer pH 7.5, 30 mM NaCl, 37°, read-out: I50 (concentration of peptide producing a 50% inhibition of angiotensin-converting enzyme) (converted)
Chain of angiotensin-converting enzyme (P12821 30-1306, species assumed): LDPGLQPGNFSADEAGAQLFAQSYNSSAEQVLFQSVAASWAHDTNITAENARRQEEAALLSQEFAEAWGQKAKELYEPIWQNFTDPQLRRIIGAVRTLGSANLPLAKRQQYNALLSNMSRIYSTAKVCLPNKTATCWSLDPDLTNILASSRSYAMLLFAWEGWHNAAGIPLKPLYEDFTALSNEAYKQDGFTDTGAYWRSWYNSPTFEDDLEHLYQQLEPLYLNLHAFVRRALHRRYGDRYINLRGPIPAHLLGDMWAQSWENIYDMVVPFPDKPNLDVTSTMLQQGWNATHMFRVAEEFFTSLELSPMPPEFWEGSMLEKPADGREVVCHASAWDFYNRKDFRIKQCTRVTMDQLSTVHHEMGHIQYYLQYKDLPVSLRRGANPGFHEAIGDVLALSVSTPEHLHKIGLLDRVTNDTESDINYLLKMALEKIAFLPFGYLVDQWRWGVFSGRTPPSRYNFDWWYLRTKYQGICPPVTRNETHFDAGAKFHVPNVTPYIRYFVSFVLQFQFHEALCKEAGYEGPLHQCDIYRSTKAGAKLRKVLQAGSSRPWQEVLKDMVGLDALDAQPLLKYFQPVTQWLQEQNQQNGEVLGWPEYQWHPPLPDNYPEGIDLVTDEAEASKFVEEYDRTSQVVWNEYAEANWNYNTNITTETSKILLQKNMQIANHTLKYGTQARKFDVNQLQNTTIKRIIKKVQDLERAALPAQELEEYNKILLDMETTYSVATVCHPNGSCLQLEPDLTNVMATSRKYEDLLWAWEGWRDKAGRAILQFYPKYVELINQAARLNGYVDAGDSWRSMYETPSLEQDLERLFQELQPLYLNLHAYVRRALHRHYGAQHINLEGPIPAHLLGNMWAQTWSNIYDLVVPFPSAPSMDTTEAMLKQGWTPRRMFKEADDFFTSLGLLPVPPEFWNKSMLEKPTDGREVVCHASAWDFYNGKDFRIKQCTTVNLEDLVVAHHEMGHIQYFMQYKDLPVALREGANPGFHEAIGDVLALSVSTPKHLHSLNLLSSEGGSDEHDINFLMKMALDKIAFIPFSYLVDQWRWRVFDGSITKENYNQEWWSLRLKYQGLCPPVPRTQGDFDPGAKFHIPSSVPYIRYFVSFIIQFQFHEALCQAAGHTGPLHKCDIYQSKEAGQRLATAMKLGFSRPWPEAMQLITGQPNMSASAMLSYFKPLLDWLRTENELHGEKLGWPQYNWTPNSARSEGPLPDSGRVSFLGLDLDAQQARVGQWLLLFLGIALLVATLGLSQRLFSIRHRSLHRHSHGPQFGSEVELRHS
Method: For determination of I50 values (concentration of peptide expressed in micrograms/ml. producing a 50% inhibition of angiotensin-converting enzyme), varying concentrations of the peptide of Example 19 are added to 13 × 100 mm. assay tubes containing a final volume of 0.25 ml. containing 100 mM. potassium phosphate buffer, pH 7.5, 30 mM. NaCl, and 0.3 mM. angiotensin I. Enzymatic reactions are initiated by addition of enzyme and incubation is carried out at 37°. The concentration of the peptide of Example 19 of the present invention which inhibits conversion of 50% of angiotensin I into angiotensin II is found to be 7 μg./ml as opposed to an I50 (μg/ml) of 0.9 for the parent peptide Pyr-Trp-Pro-Arg-Pro-Gln-Ile-Pro-Pro.

[2] = system: angiotensin I induced pressor response; experiment: Inhibition of angiotensin I induced pressor response in anesthetized rats; format: in vivo; conditions: intravenous; atropinized anesthetized male rats infused with pentolinium; 0.10 μg/kg angiotensin I

Row | SMILES | IC50 [1] [µM] | in vitro potency in inhibiting conversion of angiotensin I into angiotensin II, compared with parent control peptide ([1]; in vitro) | in vivo activity (degree of inhibition of angiotensin I induced pressor response) [2]
1 | CC[C@H](C)[C@H](NC(=O)[C@H](CCC(N)=O)NC(=O)[C@@H]1CCCN1C(=O)[C@H](CCCNC(=N)N)NC(=O)[C@@H]1CCCN1C(=O)[C@H](Cc1c[nH]c2ccccc12)NC(=O)[C@@H]1CCC(=O)N1)C(=O)N1CCC[C@H]1C(=O)N1CCC[C@H]1C(=O)OC [Example 19, Pyroglutamyl-tryptophyl-prolyl-arginyl-prolyl-glutaminyl-isoleucyl-prolyl-proline, methyl ester] | 6.28 | substantially less potent than the parent control peptide | roughly equivalent to that of the parent Control peptide
2 | CC[C@H](C)[C@H](NC(=O)[C@H](CCC(N)=O)NC(=O)[C@@H]1CCCN1C(=O)[C@H](CCCNC(=N)N)NC(=O)[C@@H]1CCCN1C(=O)[C@H](Cc1c[nH]c2ccccc12)NC(=O)[C@@H]1CCC(=O)N1)C(=O)N1CCC[C@H]1C(=O)N1CCC[C@H]1C(=O)O [Pyr-Trp-Pro-Arg-Pro-Gln-Ile-Pro-Pro, Pyroglutamyl-tryptophyl-prolyl-arginyl-prolyl-glutaminyl-isoleucyl-prolyl-proline, reference compound] | 0.817 |  | 
